Measured values: US20080249091A1, “Indoles Useful in the Treatment of Inflammation” (priority 2005, published 2008)

Biological target: T1, mPGES-1 (Homo sapiens, UniProt O14684)
T1 construct: made in house; host or cells: E. coli (membrane fraction)
T1 sequence (O14684 1-152): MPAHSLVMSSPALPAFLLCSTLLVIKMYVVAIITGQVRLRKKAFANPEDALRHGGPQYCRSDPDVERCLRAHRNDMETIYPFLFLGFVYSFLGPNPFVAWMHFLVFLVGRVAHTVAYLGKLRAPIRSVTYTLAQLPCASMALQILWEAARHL
Experiment: mPGES-1 assay: conversion of PGH2 to PGE2, HPLC analysis
Format: biochemical
Details: mPGES-1 expressed in E. coli; 25 min preincubation with inhibitor at room temperature; PGH2 substrate 60 seconds; read-out: IC50 values (inhibition of mPGES-1)
Experimental: In the assay mPGES-1 catalyses the reaction where the substrate PGH2 is converted to PGE2. mPGES-1 is expressed in E. coli and the membrane fraction is dissolved in 20 mM NaPi-buffer pH 8.0 and stored at −80° C. In the assay mPGES-1 is dissolved in 0.1M KPi-buffer pH 7.35 with 2.5 mM glutathione. The stop solution consists of H2O/MeCN (7/3), containing FeCl2 (25 mM) and HCl (0.15 M). The assay is performed at room temperature in 96-well plates. Analysis of the amount of PGE2 is performed with reversed phase HPLC (Waters 2795 equipped with a 3.9×150 mm C18 column). The mobile phase consists of H2O/MeCN (7/3), containing TFA (0.056%), and absorbance is measured at 195 nm with a Waters 2487 UV-detector.
The following is added chronologically to each well: • 1. 100 μL mPGES-1 in KPi-buffer with glutathione. Total protein concentration: 0.02 mg/mL. • 2. 1 μL inhibitor in DMSO. Incubation of the plate at room temperature for 25 minutes. • 3. 4 μL of a 0.25 mM PGH2 solution. Incubation of the plate at room temperature for 60 seconds. • 4. 100 μL stop solution. • 180 μL per sample is analyzed with HPLC.

SMILES	IC50
CC(C)Oc1ccc(-n2c(C(=O)O)cc3cc(Oc4cccc(OC(C)C)c4)ccc32)cc1 [Example 1, 5-(3-Isopropoxyphenoxy)-1-(4-isopropoxyphenyl)indole-2-carboxylic acid]	430 nM
CC(C)Oc1ccc(-n2c(C(=O)O)cc3cc(Oc4ccc(Cl)cc4)ccc32)cc1 [Example 10, 5-(4-Chlorophenoxy)-1-(4-isopropoxyphenyl)indole-2-carboxylic acid]	240 nM
CC(C)Oc1ccc(-n2c(C(=O)O)cc3cc(Oc4cnc5ccccc5c4)ccc32)cc1 [Example 13, 1-(4-Isopropoxyphenyl)-5-(quinolin-3-yloxy)indole-2-carboxylic acid]	3700 nM

Results, then the compound that gave them:

IC50	SMILES
75 nM	O=C(O)c1cc2cc(Oc3ccc(C4CCCCC4)cc3)ccc2n1-c1ccc(OC2CC2)cc1 [Example 21, 5-(4-Cyclohexylphenoxy)-1-(4-cyclopropoxyphenyl)indole-2-carboxylic acid]
610 nM	O=C(c1ccc(Cl)cc1)c1ccc2c(c1)c(Cl)c(C(=O)O)n2-c1ccc(OC2CCCC2)cc1 [Example 40, 3-Chloro-5-(4-chlorobenzoyl)-1-(4-cyclopentyloxyphenyl)indole-2-carboxylic acid]
